Data as given in publication PMC11778240, “Synthesis and preclinical evaluation of tigilanol tiglate analogs as latency-reversing agents for the eradication of HIV” (Science Advances, 2025).

Test system: NF-κB pathway
Test: NF-κB activation assay, A549 cells with SEAP reporter
Type: cell-based, Human
Conditions: for NF-κB activation (optical density, 630 nm): 24 hours after dosing; for NF-κB activation (optical density, 630 nm) / NF-κB activation in words: A549 cells; for NF-κB activation, times the basal level (DMSO control) / NF-κB activation in words: 24 hours; for NF-κB activation in words: 50 and/or 500 nM
Description: As a high-throughput method of screening compounds for their ability to get into cells and activate immunological pathways related to HIV latency reversal ([46], [70]), we conducted an NF-κB reporter assay using A549 cells stably integrated with a secreted embryonic alkaline phosphatase reporter under the control of a promoter fused to five NF-κB binding sites (Fig. 7B) ([48], [70], [71]).
Human A549-Dual™ Cells supplied by InvivoGen (Cat. code a549d-nfis) and CHO-K1 cells were passaged when about 90% confluency was reached (approximately every three days). With each passage, media was aspirated from the cell layer, which was then washed with PBS. Following aspiration of the PBS, cells were detached from the culture flask with 0.25% GibcoTM Trypsin-EDTA and transferred to a 50 mL conical, which was volumed up with complete pre-warmed DMEM (4.5 g/L glucose, 10% FBS, and 1% Pen-Strep-Glutamine (100 X, 50 mg/mL)) or Ham's F-12K (Kaighn's) Medium supplemented with 10% FBS and 1% Pen-Strep (100 X, 50 mg/mL).
This conical was spun down at 1800 rpm for 3 minutes, the supernatant was removed, and cells were resuspended in their respective fresh, pre-warmed media. To count cells, 10 μL of resuspended cells were added to a sterile microcentrifuge tube and mixed with 10 μL of trypan blue after which 10 μL of the mixture was pipetted into a Countess chamber slide. A Countess™ 3 Automated Cell Counter was subsequently utilized to determine cell viability and concentration.
1 x 10^6 cells were seeded with each passage into a T75 culture flask, and cells were incubated at […]
Human A549 lung carcinoma cells (InvivoGen Cat. code a549d-nfis), stably integrated with a secreted embryonic alkaline phosphatase (SEAP) reporter, allow for the activity of the NF-κB pathway to be monitored. The SEAP reporter is under control of the interferon β (IFN-β) minimal promoter, which is fused to five NF-κB binding sites.
5 × 10^4 A549 cells were plated on Corning® 96 Well TC-Treated Microplates (CLS3595) in 180 μl of pre-warmed DMEM (4.5 g/L glucose, 10% heat-inactivated FBS (30 min at 56 ℃), and 1% Pen-Strep-Glutamine (100 X, 50 mg/mL)). Note that if cells were grown in media containing FBS that is not heat-inactivated, media will contain alkaline phosphatase. In this case, all supernatant must thoroughly be aspirated from the cell pellet obtained after centrifugation before resuspending cells in media containing heat inactivated FBS for plating. Following incubation at 37 °C in 5% CO2 for approximately 24 hours to allow for cell adherence onto the 96 well plate, 1.8 μL of each compound dissolved in DMSO was added in quadruplicate to their respective wells to achieve a final compound concentration of 1500 nM, 500 nM, or 50 nM. 1.8 μL of DMSO was added to wells as negative controls while wells treated with EBC-46 served as positive controls. 24 hours following compound addition, 180 μL of QUANTI-BlueTM Solution (InvivoGen Cat. code rep-qbs)- medium containing QB buffer and QB Reagent for detection and quantification of alkaline phosphatase- were added into wells on a new clear flat-bottom 96-well plate. 20 μL of supernatant of either SEAP-expressing cells incubated with compound or SEAP-expressing cells incubated with DMSO only were added to the wells in the new 96-well plate containing QUANTI-BlueTM Solution. Supernatant and QUANTI-BlueTM Solution were incubated at 37 °C in 5% CO2 for approximately an hour and a half. Following incubation, optical density (OD) at 630 nm was measured for each well using a BioTek Synergy H1 microplate reader under normal read speed and with a delay of 100 msec.

Structure (SMILES) | NF-κB activation (optical density, 630 nm) (50 nM) | NF-κB activation, times the basal level (DMSO control) (500 nM) | NF-κB activation (optical density, 630 nm) (500 nM) | NF-κB activation in words | NF-κB activation, times the basal level (DMSO control) (50 nM)
C/C=C(\C)C(=O)O[C@@H]1[C@@H](C)[C@@]2(O)[C@H]([C@@H]3C(C)(C)[C@]13OC(=O)[C@@H](C)CC)[C@@H]1O[C@]1(CO)[C@@H](O)[C@]1(O)C(=O)C(C)=C[C@H]12 [EBC-46, Tigilanol tiglate] | 0.35 optical density, 630 nm | ~ 2.5 times | 0.69 optical density, 630 nm | minimal activation of NF-κB relative to the dimethyl sulfoxide (DMSO) control | –
C/C=C(\C)C(=O)O[C@@H]1[C@@H](C)[C@]2(O)[C@@H]3C=C(C)C(=O)[C@@]3(O)[C@H](O)C(CO)=C[C@H]2[C@@H]2C(C)(C)[C@]12OC(=O)[C@@H](C)CC [SUW400] | 0.41 optical density, 630 nm | – | 0.67 optical density, 630 nm | comparable activity to EBC-46 at 50 and 500 nM | –
C/C=C(\C)C(=O)O[C@@H]1[C@@H](C)[C@@]2(O)[C@@H](C=C(CO)C[C@]3(O)C(=O)C(C)=C[C@@H]23)[C@@H]2C(C)(C)[C@]12OC(=O)[C@@H](C)CC [SUW402] | 0.71 optical density, 630 nm | – | 0.63 optical density, 630 nm | strong activation of NF-κB at higher concentrations but with an inverse dose response | approximately three
CC=C(C)C(=O)OC1C(C)C2(O)C(C3OC3(CO)CC3(O)C(=O)C(C)=CC32)C2C(C)(C)C12OC(=O)C(C)CC (stereo not drawn) [SUW403] | 0.39 optical density, 630 nm | – | 0.67 optical density, 630 nm | comparable activity to EBC-46 at 50 and 500 nM | –
C/C=C(\C)C(=O)O[C@@H]1[C@@H](C)[C@@]2(O)[C@H]([C@@H]3C(C)(C)[C@]13OC(=O)C1CCC1)[C@@H]1O[C@]1(CO)[C@@H](O)[C@]1(O)C(=O)C(C)=C[C@H]12 [SUW406] | 0.38 optical density, 630 nm | – | 0.57 optical density, 630 nm | comparable activity to EBC-46 at 50 and 500 nM | –
C/C=C(\C)C(=O)O[C@@H]1[C@@H](C)[C@@]2(O)[C@H]([C@@H]3C(C)(C)[C@]13OC(=O)[C@H](C)CC)[C@@H]1O[C@]1(CO)[C@@H](O)[C@]1(O)C(=O)C(C)=C[C@H]12 [SUW407] | 0.42 optical density, 630 nm | – | 0.60 optical density, 630 nm | comparable activity to EBC-46 at 50 and 500 nM | –
CC[C@H](C)C(=O)O[C@@]12[C@H](OC(=O)C3(C)CC3)[C@@H](C)[C@@]3(O)[C@H]([C@@H]1C2(C)C)[C@@H]1O[C@]1(CO)[C@@H](O)[C@]1(O)C(=O)C(C)=C[C@H]13 [SUW413] | 0.40 optical density, 630 nm | – | 0.70 optical density, 630 nm | comparable activity to EBC-46 at 50 and 500 nM | –
C/C=C(\C)C(=O)O[C@@H]1[C@@H](C)[C@@]2(O)[C@H]([C@@H]3C(C)(C)[C@]13OC(=O)N1CCCC1)[C@@H]1O[C@]1(CO)[C@@H](O)[C@]1(O)C(=O)C(C)=C[C@H]12 [SUW421] | 0.30 optical density, 630 nm | – | 0.31 optical density, 630 nm | minimal activity in this assay at 50 and 500 nM | –
C/C=C(\C)C(=O)O[C@@H]1[C@@H](C)[C@]2(O)[C@@H]3C=C(C)[C@H](OC(=O)c4ccccc4)[C@@]3(O)[C@H](O)C(CO)=C[C@H]2[C@@H]2C(C)(C)[C@]12OC(=O)[C@@H](C)CC [SUW422] | 0.26 optical density, 630 nm | – | 0.36 optical density, 630 nm | minimal NF-κB activation at both 50 and 500 nM | –
CC[C@H](C)C(=O)O[C@@]12[C@H](OC(=O)N3CCCC3)[C@@H](C)[C@@]3(O)[C@H]([C@@H]1C2(C)C)[C@@H]1O[C@]1(CO)[C@@H](O)[C@]1(O)C(=O)C(C)=C[C@H]13 [SUW424] | 0.34 optical density, 630 nm | – | 0.34 optical density, 630 nm | minimal activity in this assay at 50 and 500 nM | –
C/C=C(\C)C(=O)O[C@@H]1[C@@H](C)[C@]2(O)[C@@H]3C=C(C)[C@H](OC(=O)C=C(C)C)[C@@]3(O)[C@H](O)C(CO)=C[C@H]2[C@@H]2C(C)(C)[C@]12OC(=O)[C@@H](C)CC [SUW425] | 0.34 optical density, 630 nm | – | 0.47 optical density, 630 nm | minimal NF-κB activation at both 50 and 500 nM | –
CC=C(C)C(=O)OC1C(C)C2(O)C(C3OC3(COC)C(O)C3(O)C(=O)C(C)=CC32)C2C(C)(C)C12OC(=O)C(C)CC (stereo not drawn) [SUW426] | 0.23 optical density, 630 nm | – | 0.23 optical density, 630 nm | did not exhibit NF-κB activation at either concentration tested | –
C/C=C(\C)C(=O)O[C@@H]1[C@@H](C)[C@@]2(O)[C@H]([C@@H]3C(C)(C)[C@]13OC(=O)c1ccccc1)[C@@H]1O[C@]1(CO)[C@@H](O)[C@]1(O)C(=O)C(C)=C[C@H]12 [SUW428] | 0.31 optical density, 630 nm | – | 0.43 optical density, 630 nm | less effective at inducing NF-κB activation than EBC-46 at 500 nM | –
CC[C@H](C)C(=O)O[C@@]12[C@H](OC(C)(C)C)[C@@H](C)[C@@]3(O)[C@H]([C@@H]1C2(C)C)[C@@H]1O[C@]1(CO)[C@@H](O)[C@]1(O)C(=O)C(C)=C[C@H]13 [SUW430] | 0.30 optical density, 630 nm | – | 0.67 optical density, 630 nm | performed comparably to EBC-46 at both concentrations | –
C/C=C(\C)C(=O)O[C@@H]1[C@@H](C)[C@@]2(O)[C@H]([C@@H]3C(C)(C)[C@]13OC(=O)Cc1cccc3ccccc13)[C@@H]1O[C@]1(CO)[C@@H](O)[C@]1(O)C(=O)C(C)=C[C@H]12 [SUW431] | 0.74 optical density, 630 nm | – | 0.65 optical density, 630 nm | strong activation of NF-κB at higher concentrations but with an inverse dose response | approximately three
